± gives the expanded uncertainty stated by the source.
Key:
[1] = Crystal; DTA
[2] = Molar enthalpy of transition or fusion; details: Crystal; DSC

Normal melting temperature [1]	Molar enthalpy of transition or fusion [2]	Compound
31.10 ± 3 °C	7.93 ± 0.215 kcal/mol	CCCCCCCCOC(=O)/C=C\C(=O)O [maleic acid monooctyl ester]
71.80 ± 3 °C	17.1 ± 0.454 kcal/mol	CCCCCCCCCCCCCCCCOC(=O)/C=C\C(=O)O [maleic acid monohexadecyl ester]
82.00 ± 5 °C	20.8 ± 0.55 kcal/mol	CCCCCCCCCCCCCCCCCCCCCCOC(=O)/C=C\C(=O)O [maleic acid monodocosyl ester]
51.30 ± 4 °C	12.4 ± 0.335 kcal/mol	CCCCCCCCCCCCOC(=O)/C=C\C(=O)O [maleic acid monododecyl ester]
45.80 ± 2.1 °C	12.7 ± 0.335 kcal/mol	CCCCCCCCCCCCOC(=O)CCC(=O)O [butanedioic acid, monododecyl ester]
64.20 ± 1.1 °C	15.8 ± 0.43 kcal/mol	CCCCCCCCCCCCCCCCOC(=O)CCC(=O)O [succinic acid monohexadecyl ester]
73.60 ± 1.1 °C	22.2 ± 0.574 kcal/mol	CCCCCCCCCCCCCCCCCCCCCCOC(=O)CCC(=O)O [succinic acid monodocosyl ester]
36.50 ± 1.1 °C	9.99 ± 0.263 kcal/mol	CCCCCCCCOC(=O)CCC(=O)O [succinic acid monooctyl ester]
